In assay [1] the target is T1, L444P GC (Homo sapiens, UniProt P04062, L483P).
T1 construct: a L444P GC Gaucher fibroblast cell line (GM08760); host or cells: Gaucher patient-derived skin fibroblasts
T1 sequence (P04062 40-536 L483P): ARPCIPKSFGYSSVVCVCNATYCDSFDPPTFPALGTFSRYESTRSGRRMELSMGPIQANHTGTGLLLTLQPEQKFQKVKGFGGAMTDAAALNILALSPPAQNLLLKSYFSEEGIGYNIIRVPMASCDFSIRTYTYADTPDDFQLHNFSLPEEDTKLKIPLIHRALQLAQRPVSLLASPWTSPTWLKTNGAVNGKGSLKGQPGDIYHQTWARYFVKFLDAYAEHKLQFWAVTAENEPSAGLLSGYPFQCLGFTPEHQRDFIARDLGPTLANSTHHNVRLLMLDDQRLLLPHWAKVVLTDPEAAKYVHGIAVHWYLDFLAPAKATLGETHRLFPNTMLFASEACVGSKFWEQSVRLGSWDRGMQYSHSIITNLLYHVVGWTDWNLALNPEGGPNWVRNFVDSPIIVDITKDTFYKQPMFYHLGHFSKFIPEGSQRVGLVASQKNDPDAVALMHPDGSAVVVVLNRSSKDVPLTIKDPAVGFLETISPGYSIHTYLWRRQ
In words: GC activity assay in L444P GC Gaucher patient-derived fibroblasts. In kind it is cell-based.

Assay [2] concerns Hsp70, HSF1, BiP, Hsp40, Hsp90. As to the kind of experiment: Western blot of chaperone and HSF1 protein levels in L444P GC fibroblasts. The format is cell-based, human. How it is done: To correlate changes in Hsp70 chaperone levels with the celastrol-mediated transcriptional increase in Hsp70, as well as to investigate the temporal dependence of the change in Hsp70 levels, L444P GC fibroblasts were subjected to a single celastrol exposure (0.8 μM) for the period indicated and Hsp70 expression levels in cell lysates were analyzed by Western blot analysis. […] Hsp70, a product of HSR activation, has been implicated in HSR autoregulation by binding to HSF1, thereby repressing heat shock gene transcription (FIG. 7). Morimoto, Genes Dev 12: 3788-3796, 1998; Westerheide et al., J Biol Chem 280: 33097-33100, 2005.
Since HSF1 is likely to be responsible for celastrol's induction of the HSR we monitored HSF1 levels. Westerheide et al., J Biol Chem 279: 56053-56060, 2004. […] Awasthi, et al., Invest Opthalmol Vis Sci 46: 2082-2091, 2005; Bush et al., J Biol Chem 272: 9086-9092, 1997.
Western blot analyses. […] Total cell protein was determined with Micro BCA assay reagent (Pierce, Rockford, Ill.) and each sample was diluted to the same protein concentration. […] The western blot bands of the endoH treated samples were quantified by Java Image processing and analysis software from the NIH (http://rsb.info.nih.gov/ij/).
Western blot. […] Total cell protein was measured using the Micro BCA assay reagent. […]
A general note: Immunoblotting shows a protein as a band on a membrane.

For assay [3], the system named is chaperone, CHOP and GC mRNA expression levels. In words: Quantitative RT-PCR in L444P GC fibroblasts. In kind it is cell-based, human. The text has this: The relative mRNA expression levels of representative cytoplasmic HSR-associated chaperones (Hsp40, Hsp70, Hsp90, Hsp27, αB-crystallin), ER lumenal UPR-associated chaperones (BiP, GRP94, calreticulin), and the ER chaperone calnexin were monitored and their reported levels were normalized to the levels in untreated cells (FIGS. 5A and B). The levels of glyceraldehyde-3-phosphate dehydrogenase, monitored as a housekeeping control, were unchanged in treated and untreated cells.
Quantitative RT-PCR. […] The forward and reverse primers for Hsp40, Hsp70, Hsp90, Hsp27, αB-crystallin (CRYAB), BiP, GRP94, calnexin (CNX), calreticulin (CRT), Xbp-1, and CHOP, and an endogenous housekeeping gene GAPDH are listed in Table 2. […] Each data point was evaluated in triplicate, and measured three times.

The test system of assay [4] is L444P GC. In kind it is cell-based, human. Particulars: MG-132 0.25 μM for 3 d; diltiazem 10 μM for 14 days.
From the text: (§1) Immunofluorescence. Immunofluorescence has been previously described.
as §1

Where [5] appears, read: diltiazem 10 μM, 7-day treatment.

Residues, ends and D or L forms follow the SMILES beside them. *: point of attachment. Cbz = O=C(OCc1ccccc1)*

With `CC(C)C[C@@H](C=O)NC(=O)[C@H](CC(C)C)NC(=O)[C@H](CC(C)C)NC(=O)OCc1ccccc1` [MG-132] (Cbz-Leu-Leu-Leu-aldehyde), in assay [1] (MG-132 single exposure, after 120 h (FIG. 2A)), the “L444P GC activity as % of WT GC activity” value was “≈ 50.0%”. Besides, in assay [2] (0.8 μM, over 24 h), the HSF1 protein levels result is listed as “remained constant”. In assay [3] (0.8 μM, 24 h), the “transcription of Hsp27” value is “did not” and the transcription of calnexin entry is “upregulated the transcription of calnexin significantly”. Further, in assay [3] (0.8 μM, 2, 4, 6 and 24 h), the “mRNA expression level of BiP” value was “BiP was also upregulated” and the “mRNA expression level of CHOP” value is reported as “upregulated the mRNA expression level of CHOP significantly”. Besides, the “colocalization of L444P GC with lysosomal marker LAMP2” value in assay [4] is reported as “exhibited colocalization with the lysosomal marker LAMP2”.

As to `COc1ccc([C@@H]2Sc3ccccc3N(CCN(C)C)C(=O)[C@@H]2OC(C)=O)cc1.Cl` [diltiazem, Diltiazem hydrochloride], the “direct activation of lysosomal L444P GC” value in assay [1] (1 μM to 100 μM, 1 h, intact cell assay) was “No activity increase was observed”. Further, the “effect on L444P GC activity, intact cell GC activity assay” value in assay [1] (calcium channel blockers and ionotropic glutamate receptor inhibitors) is “increased L444P GC activity significantly”. For the same compound, in assay [1] (diltiazem 10 μM, 5-day incubation, type II line (FIG. 17C, left panel)), the “L444P GC activity as % of normal cellular WT GC activity” value was “≈ 24%”. Besides, the “protein expression levels of BiP, Hsp40, and Hsp90” value in assay [2] (setting [5]) is listed as “increased protein expression levels”. In assay [3] (setting [5]), the “mRNA expression levels of Hsp70, GRP94, calnexin, and calreticulin” value is recorded as “not changed significantly”. For the same compound, the “GC mRNA expression level vs untreated cells” value in assay [3] (diltiazem 10 μM, 6 h, 12 h, 1 day, 3 days and 5 days) is reported as “No significant differences”. Further, the “colocalization of L444P GC with lysosomal marker LAMP2” value in assay [4] was “L444P GC colocalized with LAMP2”.

Values taken from US20090203605A1, “Methods For Treating A Condition Characterized By Dysfunction In Protein Homeostasis” (THE SCRIPPS RESEARCH INSTITUTE, priority 2008, published 2009).
